Assay results from article doi:10.1101/2021.09.30.462449v1 (biorxiv, 2021).

Key:
Assay in all cases: biochemical
Conditions in all cases: read-out: % inhibition mean (Z'Lyte)
CAMK1G (CAMKI gamma) = CAMK1G (CAMKI gamma) (Homo sapiens, UniProt Q96NX5)
TBK1 = TBK1 (Homo sapiens, UniProt Q9UHD2)
NEK6 = NEK6 (Homo sapiens, UniProt Q9HC98)
PRKD1 (PKC mu) = PRKD1 (PKC mu) (Homo sapiens, UniProt Q15139)
PAK7 (KIAA1264) = PAK7 (KIAA1264) (Homo sapiens, UniProt Q9P286)
PIM1 = PIM1 (Homo sapiens, UniProt P11309)
MAP3K9 (MLK1) = MAP3K9 (MLK1) (Homo sapiens, UniProt P80192)
Chain of MAP3K9 (MLK1) (P80192 whole entry): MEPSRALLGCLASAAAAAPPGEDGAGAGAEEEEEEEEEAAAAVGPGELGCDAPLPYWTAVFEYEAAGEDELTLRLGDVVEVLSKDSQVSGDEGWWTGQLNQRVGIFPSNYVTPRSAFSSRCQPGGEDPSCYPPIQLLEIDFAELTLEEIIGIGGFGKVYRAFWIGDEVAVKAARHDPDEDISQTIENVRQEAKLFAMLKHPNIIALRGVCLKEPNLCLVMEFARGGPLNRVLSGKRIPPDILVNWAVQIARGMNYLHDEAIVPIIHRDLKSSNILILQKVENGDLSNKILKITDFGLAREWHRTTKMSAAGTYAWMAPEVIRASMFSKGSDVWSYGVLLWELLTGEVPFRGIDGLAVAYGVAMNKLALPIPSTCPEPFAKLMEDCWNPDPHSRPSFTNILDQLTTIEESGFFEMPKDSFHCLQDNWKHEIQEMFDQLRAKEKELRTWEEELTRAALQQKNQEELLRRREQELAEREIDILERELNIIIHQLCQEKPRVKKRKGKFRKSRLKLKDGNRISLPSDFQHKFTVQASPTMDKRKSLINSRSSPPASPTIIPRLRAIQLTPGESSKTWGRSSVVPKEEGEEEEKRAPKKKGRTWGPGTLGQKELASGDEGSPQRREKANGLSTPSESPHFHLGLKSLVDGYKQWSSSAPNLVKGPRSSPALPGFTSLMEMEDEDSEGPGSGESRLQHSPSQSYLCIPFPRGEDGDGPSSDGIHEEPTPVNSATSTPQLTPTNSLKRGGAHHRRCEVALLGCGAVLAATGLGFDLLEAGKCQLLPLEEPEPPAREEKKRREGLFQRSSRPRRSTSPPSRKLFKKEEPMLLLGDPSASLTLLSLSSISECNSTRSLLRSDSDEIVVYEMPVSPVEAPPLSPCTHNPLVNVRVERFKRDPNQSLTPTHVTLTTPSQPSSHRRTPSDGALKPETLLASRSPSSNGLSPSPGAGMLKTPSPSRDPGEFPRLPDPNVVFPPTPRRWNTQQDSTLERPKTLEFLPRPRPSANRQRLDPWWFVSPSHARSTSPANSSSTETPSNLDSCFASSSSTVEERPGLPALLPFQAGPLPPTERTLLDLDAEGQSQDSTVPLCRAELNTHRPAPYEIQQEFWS

EPHA8 = EPHA8 (Homo sapiens, UniProt P29322)
EPHB1 = EPHB1 (Homo sapiens, UniProt P54762)
PTK6 (Brk) = PTK6 (Brk) (Homo sapiens, UniProt Q13882)
CSF1R (FMS) = CSF1R (FMS) (Homo sapiens, UniProt P07333)
EGFR (ErbB1) L861Q = EGFR (ErbB1) L861Q (Homo sapiens, UniProt P00533, L861Q)
GRK6 = GRK6 (Homo sapiens, UniProt P43250)
NEK2 = NEK2 (Homo sapiens, UniProt P51955)
PKN1 (PRK1) = PKN1 (PRK1) (Homo sapiens, UniProt Q16512)
HIPK3 (YAK1) = HIPK3 (YAK1) (Homo sapiens, UniProt Q9H422)
STK4 (MST1) = STK4 (MST1) (Homo sapiens, UniProt Q13043)
Chain of STK4 (MST1) (Q13043 whole entry): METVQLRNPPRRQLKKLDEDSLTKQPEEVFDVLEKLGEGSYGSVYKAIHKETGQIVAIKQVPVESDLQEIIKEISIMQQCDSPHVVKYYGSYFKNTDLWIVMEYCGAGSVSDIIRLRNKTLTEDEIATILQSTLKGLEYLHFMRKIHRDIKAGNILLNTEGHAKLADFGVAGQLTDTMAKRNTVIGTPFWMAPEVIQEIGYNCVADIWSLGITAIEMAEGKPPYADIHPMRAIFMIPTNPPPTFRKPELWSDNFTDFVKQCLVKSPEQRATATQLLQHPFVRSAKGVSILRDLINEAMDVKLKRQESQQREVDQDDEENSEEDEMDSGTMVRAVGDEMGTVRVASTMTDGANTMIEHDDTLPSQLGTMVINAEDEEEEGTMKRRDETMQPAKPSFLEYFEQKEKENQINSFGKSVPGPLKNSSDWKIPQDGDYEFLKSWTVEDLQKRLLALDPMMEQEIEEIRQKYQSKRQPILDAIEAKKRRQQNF

RPS6KA2 (RSK3) = RPS6KA2 (RSK3) (Homo sapiens, UniProt Q15349)
ABL2 (Arg) = ABL2 (Arg) (Homo sapiens, UniProt P42684)
Chain of ABL2 (Arg) (P42684 whole entry): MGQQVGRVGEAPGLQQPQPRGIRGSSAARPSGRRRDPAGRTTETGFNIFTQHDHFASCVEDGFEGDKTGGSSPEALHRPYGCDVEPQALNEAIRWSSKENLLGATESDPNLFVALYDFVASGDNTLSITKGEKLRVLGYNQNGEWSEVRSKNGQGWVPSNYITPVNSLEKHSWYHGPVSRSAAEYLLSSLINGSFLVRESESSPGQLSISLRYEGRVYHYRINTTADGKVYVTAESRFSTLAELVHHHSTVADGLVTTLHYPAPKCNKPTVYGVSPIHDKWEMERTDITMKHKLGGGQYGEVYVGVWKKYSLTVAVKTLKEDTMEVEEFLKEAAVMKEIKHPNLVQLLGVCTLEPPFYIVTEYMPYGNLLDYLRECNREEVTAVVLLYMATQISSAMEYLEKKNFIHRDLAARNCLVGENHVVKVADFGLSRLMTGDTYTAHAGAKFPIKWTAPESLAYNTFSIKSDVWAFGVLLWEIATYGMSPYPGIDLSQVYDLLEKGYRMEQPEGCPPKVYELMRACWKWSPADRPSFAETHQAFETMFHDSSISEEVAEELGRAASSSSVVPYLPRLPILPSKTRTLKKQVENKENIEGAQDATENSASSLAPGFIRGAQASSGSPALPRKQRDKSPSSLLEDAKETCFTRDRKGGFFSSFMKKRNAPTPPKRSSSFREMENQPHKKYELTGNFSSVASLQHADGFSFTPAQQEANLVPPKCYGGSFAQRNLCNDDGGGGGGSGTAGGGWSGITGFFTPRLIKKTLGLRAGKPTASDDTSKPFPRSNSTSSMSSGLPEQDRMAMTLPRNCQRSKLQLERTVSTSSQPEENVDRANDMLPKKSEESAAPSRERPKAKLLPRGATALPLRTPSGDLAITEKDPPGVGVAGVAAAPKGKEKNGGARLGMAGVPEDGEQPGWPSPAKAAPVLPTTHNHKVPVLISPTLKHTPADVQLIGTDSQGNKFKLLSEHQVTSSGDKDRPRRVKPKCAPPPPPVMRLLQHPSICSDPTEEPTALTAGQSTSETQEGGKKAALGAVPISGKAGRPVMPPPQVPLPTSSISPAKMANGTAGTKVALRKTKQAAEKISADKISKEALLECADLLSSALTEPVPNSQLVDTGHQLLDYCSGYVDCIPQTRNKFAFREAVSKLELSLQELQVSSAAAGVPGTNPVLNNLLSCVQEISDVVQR

FLT3 D835Y = FLT3 D835Y (Homo sapiens, UniProt P36888, D835Y)
CDC42 BPA (MRCKA) = CDC42 BPA (MRCKA) (Homo sapiens, UniProt Q5VT25)
LYN A = LYN A (Homo sapiens, UniProt P07948)
RPS6KA5 (MSK1) = RPS6KA5 (MSK1) (Homo sapiens, UniProt O75582)
Chain of RPS6KA5 (MSK1) (O75582 whole entry): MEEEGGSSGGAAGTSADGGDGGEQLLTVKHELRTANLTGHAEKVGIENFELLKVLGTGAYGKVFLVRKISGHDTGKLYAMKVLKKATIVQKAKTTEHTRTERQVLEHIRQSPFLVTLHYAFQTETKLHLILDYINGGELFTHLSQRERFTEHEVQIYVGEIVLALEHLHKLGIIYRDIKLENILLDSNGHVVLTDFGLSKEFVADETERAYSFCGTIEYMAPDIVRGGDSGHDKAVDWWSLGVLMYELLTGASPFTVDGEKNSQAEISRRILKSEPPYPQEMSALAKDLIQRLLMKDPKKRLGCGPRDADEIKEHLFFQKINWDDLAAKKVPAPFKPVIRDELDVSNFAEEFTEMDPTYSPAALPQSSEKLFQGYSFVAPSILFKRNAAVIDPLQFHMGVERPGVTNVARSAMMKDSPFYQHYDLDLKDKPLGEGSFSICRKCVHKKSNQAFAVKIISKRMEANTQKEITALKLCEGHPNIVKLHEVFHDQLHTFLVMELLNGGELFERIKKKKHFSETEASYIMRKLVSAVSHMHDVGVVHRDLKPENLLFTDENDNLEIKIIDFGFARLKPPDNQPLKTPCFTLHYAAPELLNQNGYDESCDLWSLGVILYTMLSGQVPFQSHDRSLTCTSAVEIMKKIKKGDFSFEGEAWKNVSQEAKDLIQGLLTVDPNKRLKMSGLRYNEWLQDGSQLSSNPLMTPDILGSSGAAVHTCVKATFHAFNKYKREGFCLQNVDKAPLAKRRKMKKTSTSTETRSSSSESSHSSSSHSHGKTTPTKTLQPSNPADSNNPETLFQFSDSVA

PRKX = PRKX (Homo sapiens, UniProt P51817)
Chain of PRKX (P51817 whole entry): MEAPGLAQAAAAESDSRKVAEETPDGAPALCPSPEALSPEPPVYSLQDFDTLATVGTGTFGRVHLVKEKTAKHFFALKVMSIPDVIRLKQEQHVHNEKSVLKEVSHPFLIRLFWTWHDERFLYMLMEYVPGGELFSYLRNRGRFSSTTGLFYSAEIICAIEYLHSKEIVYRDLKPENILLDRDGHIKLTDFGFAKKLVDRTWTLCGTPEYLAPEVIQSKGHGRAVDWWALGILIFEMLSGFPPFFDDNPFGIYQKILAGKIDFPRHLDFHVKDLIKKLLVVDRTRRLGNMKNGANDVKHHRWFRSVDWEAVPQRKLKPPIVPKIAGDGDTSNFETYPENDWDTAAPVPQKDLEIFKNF

STK25 (YSK1) = STK25 (YSK1) (Homo sapiens, UniProt O00506)
DYRK1A = DYRK1A (Homo sapiens, UniProt Q13627)
CDK18/cyclin Y = CDK18/cyclin Y (Homo sapiens, UniProt Q07002)
MATK (HYL) = MATK (HYL) (Homo sapiens, UniProt P42679)
MAP2K2 (MEK2) = MAP2K2 (MEK2) (Homo sapiens, UniProt P36507)
Chain of MAP2K2 (MEK2) (P36507 whole entry): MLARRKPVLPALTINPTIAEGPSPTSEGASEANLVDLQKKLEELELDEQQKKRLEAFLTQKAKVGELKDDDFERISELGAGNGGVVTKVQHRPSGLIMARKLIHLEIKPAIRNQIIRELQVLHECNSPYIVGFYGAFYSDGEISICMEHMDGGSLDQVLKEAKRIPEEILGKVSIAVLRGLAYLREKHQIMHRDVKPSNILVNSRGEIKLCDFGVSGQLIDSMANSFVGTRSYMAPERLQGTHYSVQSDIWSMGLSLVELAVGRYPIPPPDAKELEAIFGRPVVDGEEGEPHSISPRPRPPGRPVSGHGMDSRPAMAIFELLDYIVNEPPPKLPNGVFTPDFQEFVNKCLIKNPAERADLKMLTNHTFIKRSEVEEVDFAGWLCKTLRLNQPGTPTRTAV

Chain of CAMK1G (CAMKI gamma) (Q96NX5 whole entry): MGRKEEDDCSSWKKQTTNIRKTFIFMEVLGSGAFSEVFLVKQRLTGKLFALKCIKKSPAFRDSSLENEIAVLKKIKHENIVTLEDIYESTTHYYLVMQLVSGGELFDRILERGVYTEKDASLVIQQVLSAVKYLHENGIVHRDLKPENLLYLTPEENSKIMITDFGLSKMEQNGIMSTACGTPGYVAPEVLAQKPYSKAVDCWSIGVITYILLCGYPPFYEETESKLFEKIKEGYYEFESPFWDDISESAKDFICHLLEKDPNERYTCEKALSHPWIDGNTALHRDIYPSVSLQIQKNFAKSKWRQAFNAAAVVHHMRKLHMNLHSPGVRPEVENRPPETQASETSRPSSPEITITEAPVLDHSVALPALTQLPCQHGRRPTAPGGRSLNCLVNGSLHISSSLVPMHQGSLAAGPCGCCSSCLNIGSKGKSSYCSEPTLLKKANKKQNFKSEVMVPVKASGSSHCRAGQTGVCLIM

## COc1ccc2nc3cc(Cl)ccc3c(Nc3cc(CN4CCCC4)c(O)c(CN4CCCC4)c3)c2n1 [Pyronaridine, 4-[(7-Chloro-2-methoxybenzo[b][1,5]naphthyridin-10-yl)amino]-2,6-bis(1-pyrrolidinylmethyl)phenol phosphate (1:4)]
CAMK1G (CAMKI gamma)
  inhibition at 1 µM: 0%
TBK1
  inhibition at 1 µM: 4%
NEK6
  inhibition at 1 µM: -3%
PRKD1 (PKC mu)
  inhibition at 1 µM: -2%
PAK7 (KIAA1264)
  inhibition at 1 µM: -5%
PIM1
  inhibition at 1 µM: 8%
MAP3K9 (MLK1)
  inhibition at 1 µM: 17%
EPHA8
  inhibition at 1 µM: 1%
EPHB1
  inhibition at 1 µM: 2%
PTK6 (Brk)
  inhibition at 1 µM: -4%
CSF1R (FMS)
  inhibition at 1 µM: -3%
EGFR (ErbB1) L861Q
  inhibition at 1 µM: -4%
GRK6
  inhibition at 1 µM: -1%
NEK2
  inhibition at 1 µM: -4%
PKN1 (PRK1)
  inhibition at 1 µM: 1%
HIPK3 (YAK1)
  inhibition at 1 µM: -2%
STK4 (MST1)
  inhibition at 1 µM: -5%
RPS6KA2 (RSK3)
  inhibition at 1 µM: 0%
ABL2 (Arg)
  inhibition at 1 µM: 2%
FLT3 D835Y
  inhibition at 1 µM: 2%
CDC42 BPA (MRCKA)
  inhibition at 1 µM: 2%
LYN A
  inhibition at 1 µM: -2%
RPS6KA5 (MSK1)
  inhibition at 1 µM: 2%
PRKX
  inhibition at 1 µM: 5%
STK25 (YSK1)
  inhibition at 1 µM: -7%
DYRK1A
  inhibition at 1 µM: 3%
CDK18/cyclin Y
  inhibition at 1 µM: 1%
MATK (HYL)
  inhibition at 1 µM: -2%
MAP2K2 (MEK2)
  inhibition at 1 µM: 2%
